Among the data in patent publication US9944666B2, “Compounds that are S1P modulating agents and/or ATX modulating agents” (BIOGEN MA INC., priority 2012, dated 2018) are IC50 values, retold here.

In this test the target is T1, Human ATX protein (Homo sapiens, UniProt Q13822).
T1 construct: made in house
The test can be described thus: ATX biochemical FRET assay with FS-3 substrate. As to conditions: FS-3 2 μM, ATX 1.0 μg/mL, room temperature 2 hours, fluorescence 485/538 nm. The procedure, abridged: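 Purified human ATX (1.0 μg/mL final) preincubated with compound 30 min at room temperature in Tris pH 7.4 buffer with NaCl, KCl, CaCl2, MgCl2 and 1 mg/mL fatty acid-free BSA. FS-3 added to 2 μM final; 2 h at room temperature in the dark, fluorescence at ex 485/em 538 nm.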

As a reminder, the IC50 is the point on the concentration scale where inhibition reaches its midpoint. Low values mean greater potency in that assay, high ones weaker potency in that assay.

With `CC[C@H]1CC[C@@H](Oc2ccc3cc(CN4C5CCCC4CC(C(=O)O)C5)ccc3c2Cl)CC1` (stereo partly drawn) [Example 110, 9-((5-Chloro-6-((cis-4-ethylcyclohexyl)oxy)naphthalen-2-yl)methyl)-9-azabicyclo[3.3.1]nonane-3-carboxylic acid], the IC50 is at most 0.1 µM.
Turning to `O=C(O)C1CC2CCCC(C1)N2Cc1ccc2c(Cl)c(O[C@H]3CC[C@@H](C(F)(F)F)CC3)ccc2c1` (stereo partly drawn) [Example 111, 9-((5-Chloro-6-((cis-4-(trifluoromethyl)cyclohexyl)oxy)naphthalen-2-yl)methyl)-9-azabicyclo[3.3.1]nonane-3-carboxylic acid], the half-inhibitory concentration (IC50) was at most 0.25 µM.
The same measure for `O=C(O)C12CCC(NCc3ccc4c(C(F)(F)F)c(OC5CCC(C(F)(F)F)CC5)ccc4c3)(CC1)CC2` (centres unmarked) [Example 144, 3-(4-{[5-trifluoromethyl-6-(4-trifluoromethyl-cyclohexyloxy)-naphthalen-2-ylmethyl]-amino}-bicyclo[2.2.2]oct-1-yl)-carboxylic acid]: at most 0.5 µM.
Compound `O=C(O)C1CC2(C1)CN(Cc1ccc3c(C(F)(F)F)c(O[C@H]4CC[C@@H](C(F)(F)F)CC4)ccc3c1)C2` [Example 146, 2-((5-(trifluoromethyl)-6-((cis-4-(trifluoromethyl)cyclohexyl)oxy)naphthalen-2-yl)methyl)-2-azaspiro[3.3]heptane-6-carboxylic acid] returned an IC50 of at most 0.25 µM.
`O=C(O)C1CC2CN(Cc3ccc4c(C(F)(F)F)c(OC5CCC(C(F)(F)F)CC5)ccc4c3)CC2C1` (centres unmarked) [Example 154, 3-(5-trifluoromethyl-6-(4-trifluoromethyl-cyclohexyloxy)-naphthalen-2-ylmethyl)-3-azabicyclo[3.3.0]octane-7-carboxylic acid] had a half-maximal inhibitory concentration (IC50) of at most 0.25 µM.
With `O=C(O)C1CC2CCC(C1)N2C(=O)c1ccc2c(Cl)c(O[C@H]3CC[C@@H](C(F)(F)F)CC3)ccc2c1` (stereo partly drawn) [Example 186, 8-(5-chloro-6-((cis-4-(trifluoromethyl)cyclohexyl)oxy)-2-naphthoyl)-8-azabicyclo[3.2.1]octane-3-carboxylic acid], the IC50 is at most 0.25 µM.
`C[C@H]1CC[C@@H](Oc2ccc3cc(CN4C5CCC4CC(C(=O)O)C5)ccc3c2C#N)CC1` (stereo partly drawn) [Example 188, 8-((5-cyano-6-((cis-4-methylcyclohexyl)oxy)naphthalen-2-yl)methyl)-8-azabicyclo[3.2.1]octane-3-carboxylic acid] had an IC50 of at most 0.5 µM.
`CC(c1ccc2c(C#N)c(O[C@H]3CC[C@@H](C)CC3)ccc2c1)N1C2CCC1CC(C(=O)O)C2` (stereo partly drawn) [Example 189, 8-(1-(5-cyano-6-((cis-4-methylcyclohexyl)oxy)naphthalen-2-yl)ethyl)-8-azabicyclo[3.2.1]octane-3-carboxylic acid] yielded an IC50 of at most 0.25 µM.
`O=C(O)C1CC2CCC(C1)N2C(=O)c1ccc2c(C(F)(F)F)c(N[C@H]3CC[C@@H](C(F)(F)F)CC3)ccc2c1` (stereo partly drawn) [Example 190, 8-(5-(trifluoromethyl)-6-((cis-4-(trifluoromethyl)cyclohexyl)amino)-2-naphthoyl)-8-azabicyclo[3.2.1]octane-3-carboxylic acid] gave an IC50 of at most 0.1 µM.
The compound `CC(C)(C)[C@H]1CC[C@H](Nc2ncc3cc(C(=O)N4C5CCCC4CC(C(=O)O)C5)ccc3n2)CC1` (stereo partly drawn) [Example 191, 9-(2-((trans-4-(tert-butyl)cyclohexyl)amino)quinazoline-6-carbonyl)-9-azabicyclo[3.3.1]nonane-3-carboxylic acid] registered an IC50 of at most 0.1 µM.
In turn, `CC(C)(C)[C@H]1CC[C@H](Nc2cc3ccc(C(=O)N4C5CCC4CC(C(=O)O)C5)cc3cn2)CC1` (stereo partly drawn) [Example 194, 8-(3-((trans-4-(tert-butyl)cyclohexyl)amino)isoquinoline-7-carbonyl)-8-azabicyclo[3.2.1]octane-3-carboxylic acid] yielded a 50% inhibitory concentration (IC50) of at most 0.1 µM.
As to `O=C(O)C1CC2CCCC(C1)N2Cc1cc2ccc(O[C@H]3CC[C@@H](C(F)(F)F)CC3)c(C(F)(F)F)c2cn1` (stereo partly drawn) [Example 197, 9-((8-(trifluoromethyl)-7-((cis-4-(trifluoromethyl)cyclohexyl)oxy)isoquinolin-3-yl)methyl)-9-azabicyclo[3.3.1]nonane-3-carboxylic acid], the IC50 was at most 0.5 µM.
Compound `CC[C@H]1CC[C@@H](Oc2ccc3nc(NC4C5CCCC4CC(C(=O)O)C5)ccc3c2C(F)(F)F)CC1` (stereo partly drawn) [Example 198, 9-((6-((cis-4-ethylcyclohexyl)oxy)-5-(trifluoromethyl)quinolin-2-yl)amino)bicyclo[3.3.1]nonane-3-carboxylic acid] gave an IC50 of at most 0.1 µM.
Compound `CC[C@H]1CC[C@@H](Oc2ccc3cc(CN4C5CCCC4CC(C(=O)O)C5)ccc3c2C#N)CC1` (stereo partly drawn) [Example 199, 9-((5-cyano-6-((cis-4-ethylcyclohexyl)oxy)naphthalen-2-yl)methyl)-9-azabicyclo[3.3.1]nonane-3-carboxylic acid] gave a half-inhibitory concentration (IC50) of at most 0.1 µM.
`CC[C@H]1CC[C@@H](Oc2ccc3cc(CN4C5CCC4CC(C(=O)O)C5)ccc3c2C#N)CC1` (stereo partly drawn) [Example 200, 8-((5-cyano-6-((cis-4-ethylcyclohexyl)oxy)naphthalen-2-yl)methyl)-8-azabicyclo[3.2.1]octane-3-carboxylic acid] showed a half-inhibitory concentration (IC50) of at most 0.5 µM.
As to `O=C(O)C1CC2CCCC(C1)N2C(=O)c1ccc2c(Cl)c(O[C@H]3CC[C@@H](C(F)(F)F)CC3)ccc2c1` (stereo partly drawn) [Example 201, 9-(5-chloro-6-((cis-4-(trifluoromethyl)cyclohexyl)oxy)-2-naphthoyl)-9-azabicyclo[3.3.1]nonane-3-carboxylic acid], the half-inhibitory concentration (IC50) is at most 0.25 µM.
Compound `CCC(c1ccc2c(Cl)c(O[C@H]3CC[C@@H](C(F)(F)F)CC3)ccc2c1)N1C2CCC1CC(C(=O)O)C2` (stereo partly drawn) [Example 202, 8-(1-(5-chloro-6-((cis-4-(trifluoromethyl)cyclohexyl)oxy)naphthalen-2-yl)propyl)-8-azabicyclo[3.2.1]octane-3-carboxylic acid] came in with a half-inhibitory concentration (IC50) of at most 0.1 µM.
`C[C@H]1CC[C@@H](Oc2ccc3cc(C(=O)N4C5CCC4CC(C(=O)O)C5)ccc3c2Cl)CC1` (stereo partly drawn) [Example 203, 8-(5-chloro-6-((cis-4-methylcyclohexyl)oxy)-2-naphthoyl)-8-azabicyclo[3.2.1]octane-3-carboxylic acid] came in with an IC50 of at most 0.25 µM.
As to `CCC(c1ccc2c(C(F)(F)F)c(O[C@H]3CC[C@@H](C(C)(F)F)CC3)ccc2c1)N1C2CCC1CC(C(=O)O)C2` (stereo partly drawn) [Example 204, 8-(1-(6-((cis-4-(1,1-difluoroethyl)cyclohexyl)oxy)-5-(trifluoromethyl)naphthalen-2-yl)propyl)-8-azabicyclo[3.2.1]octane-3-carboxylic acid], the IC50 is at most 0.1 µM.
In turn, `CC(c1ccc2c(Cl)c(O[C@H]3CC[C@@H](C)CC3)ccc2c1)N1C2CCC1CC(C(=O)O)C2` (stereo partly drawn) [Example 205, 8-(1-(5-chloro-6-((cis-4-methylcyclohexyl)oxy)naphthalen-2-yl)ethyl)-8-azabicyclo[3.2.1]octane-3-carboxylic acid] showed an IC50 of at most 0.25 µM.
Turning to `N#Cc1c(O[C@H]2CC[C@@H](C(F)(F)F)CC2)ccc2cc(C(=O)N3C4CCCC3CC(C(=O)O)C4)ccc12` (stereo partly drawn) [Example 206, 9-(5-cyano-6-((cis-4-(trifluoromethyl)cyclohexyl)oxy)-2-naphthoyl)-9-azabicyclo[3.3.1]nonane-3-carboxylic acid], the half-maximal inhibitory concentration (IC50) was at most 0.1 µM.
Compound `C[C@H]1CC[C@@H](Oc2ccc3cc(CN4C5CCCC4CC(C(=O)O)C5)ccc3c2C#N)CC1` (stereo partly drawn) [Example 207, 9-((5-cyano-6-((cis-4-methylcyclohexyl)oxy)naphthalen-2-yl)methyl)-9-azabicyclo[3.3.1]nonane-3-carboxylic acid] displayed an IC50 of at most 0.1 µM.
`C[C@H]1CC[C@@H](Oc2ccc3cc(C(=O)N4C5CCCC4CC(C(=O)O)C5)ccc3c2Cl)CC1` (stereo partly drawn) [Example 208, 9-(5-chloro-6-((cis-4-methylcyclohexyl)oxy)-2-naphthoyl)-9-azabicyclo[3.3.1]nonane-3-carboxylic acid] returned an IC50 of at most 0.25 µM.
The compound `CC(F)(F)[C@H]1CC[C@@H](Oc2ccc3cc(CN4C5CCCC4CC(C(=O)O)C5)ccc3c2C(F)(F)F)CC1` (stereo partly drawn) [Example 209, 9-((6-((cis-4-(1,1-difluoroethyl)cyclohexyl)oxy)-5-(trifluoro-methyl)naphthalen-2-yl)methyl)-9-azabicyclo[3.3.1]nonane-3-carboxylic acid] registered an IC50 of at most 0.1 µM.
In turn, `CCC(c1ccc2c(Cl)c(O[C@H]3CC[C@@H](C)CC3)ccc2c1)N1C2CCC1CC(C(=O)O)C2` (stereo partly drawn) [Example 210, 8-(1-(5-chloro-6-((cis-4-methylcyclohexyl)oxy)naphthalen-2-yl)propyl)-8-azabicyclo[3.2.1]octane-3-carboxylic acid] gave an IC50 of at most 0.1 µM.
Under `CCC(c1ccc2c(Cl)c(O[C@H]3CC[C@@H](C)CC3)ccc2c1)N1C2CCCC1CC(C(=O)O)C2` (stereo partly drawn) [Example 211, 9-(1-(5-chloro-6-((cis-4-methylcyclohexyl)oxy)naphthalen-2-yl)propyl)-9-azabicyclo[3.3.1]nonane-3-carboxylic acid] stands at most 0.1 µM.
On to `CC[C@H]1CC[C@@H](Oc2ccc3cc(C(C)N4C5CCC4CC(C(=O)O)C5)ccc3c2C#N)CC1` (stereo partly drawn) [Example 212, 8-(1-(5-cyano-6-((cis-4-ethylcyclohexyl)oxy)naphthalen-2-yl)ethyl)-8-azabicyclo[3.2.1]octane-3-carboxylic acid], for which the IC50 is at most 0.1 µM.
For `CC[C@H]1CC[C@@H](Oc2ccc3cc(C(C)N4C5CCCC4CC(C(=O)O)C5)ccc3c2C#N)CC1` (stereo partly drawn) [Example 213, 9-(1-(5-cyano-6-((cis-4-ethylcyclohexyl)oxy)naphthalen-2-yl)ethyl)-9-azabicyclo[3.3.1]nonane-3-carboxylic acid], the concentration for half-maximal inhibition (IC50) is at most 0.1 µM.
Compound `CC(c1ccc2c(Cl)c(O[C@H]3CC[C@@H](C)CC3)ccc2c1)N1C2CCCC1CC(C(=O)O)C2` (stereo partly drawn) [Example 214, 9-(1-(5-chloro-6-((cis-4-methylcyclohexyl)oxy)naphthalen-2-yl)ethyl)-9-azabicyclo[3.3.1]nonane-3-carboxylic acid] showed an IC50 of at most 0.1 µM.
